We go through 2 compounds from patent US20050192247A1, “Method of treating cancers” (priority 2004, published 2005).

Structures can show the parent of a compound that is named as a salt.

For data set [1], the system named is Human pancreatic cancer Panc-1 cells. The data set can be described thus: Panc-1 human pancreatic cancer xenograft mouse model. The format is in vivo. The settings on record: post-treatment observation 19 days. Here is the method: Human pancreatic cancer Panc-1 cells (2×10^6) are implanted subcutaneously into male athymic nude (Ncr) mice. Following establishment of tumor nodules (about 50 mm^3), the animals are randomized into four groups of five animals per group. The animals are treated intraperitoneally with one of four treatments: β-lapachone at 40 mg/kg in 40% hydroxypropy-β-cyclodextran; gemcitabine (Gemzar®) at 120 mg/kg (in PBS); β-lapachone (40 mg/kg)+gemcitabine (120 mg/kg); or vehicle control. The mice receive a total of ten treatments, administered every three days (on study day 5, 8, 11, 14, 17, 20, 31, 34, 37, and 40). The combination therapy group receives β-lapachone and gemcitabine on the same day in each treatment. Following treatment, the animals are observed for an additional 19 days. Tumors are measured throughout the treatment and post-treatment periods.
On the technique in general: A xenograft is tissue or cells of one species grown in another, often human tumour cells in immunodeficient mice.

The test system of data set [2] is A549 human lung cancer cells. In words: A549 human lung cancer xenograft mouse model. The format is in vivo. The settings on record: for tumor growth during treatment: eight treatments. As to the method:
The anti-tumor activity of β-lapachone is examined using a human lung cancer xenograft model. Briefly, athymic female nude mice (Ncr) are inoculated subcutaneously with 4×10^6 A549 human lung cancer cells, and the tumors are allowed to grow to approximately 50 mm^3 in size. The animals are randomized into five groups of seven animals per group, and treated intraperitoneally every three days with one of the following five regimens: β-lapachone at 40 mg/kg in 40% hydroxypropy-β-cyclodextran (“HPBCD”); β-lapachone at 60 mg/kg in 40% HPBCD; gemcitabine (GEMZAR®) at 120 mg/kg in PBS; β-lapachone (40 mg/kg)+gemcitabine (120 mg/kg); or vehicle control (40% HPBCD). The combination therapy group receives treatments with β-lapachone and gemcitabine at the indicated concentrations on the same day, every three days. Mice receive a total of eight treatments. Mean tumor volume is analyzed; data points in FIG. 2 represent the arithmetic mean+/−SEM of five tumors.

The subject of data set [3] is CEM T lymphoblastoid cells. The settings on record: cited from earlier work.
For data set [4], the system named is human ovarian cancer, human prostate cancer, human breast cancer, human multiple myeloma. To be noted: cited from earlier work.
Data set [5] relates to human breast cancer cells. To be noted: cited from earlier work.
The subject of data set [6] is ovary, colon, and pancreatic cancer cells. The settings on record: through induction of caspase; cited from earlier work.
The conditions of data set [7]: in vivo; cited from earlier work.
For data set [8] the following is noted: cited from earlier work.

On to `Nc1ccn([C@@H]2O[C@H](CO)[C@@H](O)C2(F)F)c(=O)n1` [gemcitabine, 2′-deoxy-2′,2′-difluorocytidine monohydrochloride (β-isomer), reference compound], for which the “tumor re-growth after termination of treatment” value in data set [1] (gemcitabine 120 mg/kg) was 400%. Moreover, the “tumor growth during treatment” value in data set [2] (gemcitabine 120 mg/kg intraperitoneally every three days) is listed as “retarded tumor growth”. Moreover, in data set [3], the “internucleosomal DNA fragmentation” value was “induces internucleosomal DNA fragmentation”.

Consider `CC1(C)CCC2=C(O1)c1ccccc1C(=O)C2=O` [β-lapachone, 3,4-dihydro-2,2-dimethyl-2H-naphtho[1,2-b]pyran-5,6-dione], for which, in data set [1] (β-lapachone 40 mg/kg), the “tumor re-growth after termination of treatment” value is reported as “no significant re-growth”. Also, the “tumor growth during treatment” value in data set [2] (β-lapachone 60 mg/kg intraperitoneally every three days) was “retarded tumor growth”. In data set [2] (β-lapachone 60 mg/kg versus 40 mg/kg), the “retardation of tumor growth, 60 mg/kg compared with 40 mg/kg” value is given as “more effective at retarding tumor growth”. Further, in data set [4], the “anti-tumor effect as a single agent” value is given as “decrease the number of tumors, reduce tumor size, or increase survival time”. Moreover, the results for the “type of cell death induced” value in data set [5] and in data set [6] were “induces necrosis” and “apoptosis”, respectively. For the same compound, the tolerability result in data set [7] is recorded as “generally well-tolerated”. Further, the water solubility entry in data set [8] was “non-water soluble”.
